Laboratory results taken from US9968649B2, “Vasopressin formulations for use in treatment of hypotension” (Par Pharmaceutical, Inc., priority 2015, dated 2018).
Several values for one entry are separate records, joined by “and”; a condition that tells them apart may be missing. Equal values may be shown once.

Assay: Effect of temperature on vasopressin formulations: HPLC vasopressin assay and impurities on storage (Example 8)
Assay type: physicochemical
Protocol: To analyze degradation products of vasopressin that can be present in an illustrative formulation of vasopressin, gradient HPLC was performed to separate vasopressin from related peptides and formulation components. TABLE 2 below depicts the results of the experiment detailing the chemical formula, relative retention time (RRT), molar mass, and structure of vasopressin and detected impurities.
Vasopressin was detected in the eluent using UV absorbance. The concentration of vasopressin in the sample was determined by the external standard method, where the peak area of vasopressin in sample injections was compared to the peak area of vasopressin reference standards in a solution of known concentration. The concentrations of related peptide impurities in the sample were also determined using the external standard method, using the vasopressin reference standard peak area and a unit relative response factor. An impurities marker solution was used to determine the relative retention times of identified related peptides at the time of analysis.
To test the effect of temperature on the stability of vasopressin formulation, solutions containing 20 units/mL vasopressin and chlorobutanol, adjusted to pH 3.5 with acetic acid, were prepared. One mL of each vasopressin formulations was then filled into 3 cc vials. Each Vasopressin Formulation was stored either inverted or upright for at least three months, up to 24 months, at: (i) 5° C.; (ii) 25° C. and 60% relative humidity; or (iii) 40° C. and 75% humidity, and the amount of vasopressin (U/mL) and % total impurities were measured periodically. TABLES 7-12 below display the results of the experiments at 5° C. The results of the experiments at 25° C. are included in TABLES 13-18. All of the experiments were performed in triplicate. The results of the experiments at 40° C. are included in TABLES 19-24. For each temperature tested, three lots of the vasopressin formulation were stored for 24 months (5° C. and 25° C.) and 3 months (40° C.), and measurements were taken at regular intervals during the testing periods. “NMT” as used in the tables denotes “not more than.”
Experiments were also conducted on the same samples above over the course of the experiments to measure the amount of individual impurities in the samples, pH of the samples, chlorobutanol content, particulate matter, antimicrobial effectiveness, and bacterial endotoxin levels (TABLES 25-42). (NR=no reading; ND=not determined; UI=unidentified impurity).

[1] = inverted, 5° C., Initial, listed as AVP
[2] = inverted, 25° C. and 60% Relative Humidity, 3 months, listed as AVP
[3] = inverted, 25° C. and 60% Relative Humidity, 6 months, listed as AVP
[4] = inverted, 25° C. and 60% Relative Humidity, 9 months, listed as AVP
[5] = inverted, 25° C. and 60% Relative Humidity, 12 months, listed as AVP
[6] = inverted, 25° C. and 60% Relative Humidity, 24 months, listed as AVP
[7] = inverted, 25° C. and 60% Relative Humidity, Initial, listed as AVP
[8] = inverted, 40° C. (75% humidity), 1 month
[9] = inverted, 40° C. (75% humidity), 2 months
[10] = inverted, 40° C. (75% humidity), 3 months
[11] = inverted, 40° C. (75% humidity), Initial
[12] = upright, 5° C., 1 month, listed as AVP
[13] = upright, 5° C., 2 months, listed as AVP
[14] = upright, 5° C., 3 months, listed as AVP
[15] = upright, 5° C., 6 months, listed as AVP
[16] = upright, 5° C., 9 months, listed as AVP
[17] = upright, 5° C., 12 months, listed as AVP
[18] = upright, 5° C., 18 months, listed as AVP
[19] = upright, 5° C., 24 months, listed as AVP
[20] = upright, 5° C., Initial, listed as AVP
[21] = upright, 25° C. and 60% Relative Humidity, 3 months, listed as AVP
[22] = upright, 25° C. and 60% Relative Humidity, 6 months, listed as AVP
[23] = upright, 25° C. and 60% Relative Humidity, 9 months, listed as AVP
[24] = upright, 25° C. and 60% Relative Humidity, 12 months, listed as AVP
[25] = upright, 25° C. and 60% Relative Humidity, 18 months, listed as AVP
[26] = upright, 25° C. and 60% Relative Humidity, 24 months, listed as AVP
[27] = upright, 25° C. and 60% Relative Humidity, Initial, listed as AVP

NC(=O)CC[C@@H]1NC(=O)[C@H](Cc2ccccc2)NC(=O)[C@H](Cc2ccc(O)cc2)NC(=O)[C@@H](N)CSSC[C@@H](C(=O)N2CCC[C@H]2C(=O)N[C@@H](CCCN=C(N)N)C(=O)NCC(N)=O)NC(=O)[C@H](CC(N)=O)NC1=O [Vasopressin, Cyclo (1-6) L-Cysteinyl-L-Tyrosyl-L-Phenylalanyl-L-Glutaminyl-L-Asparaginyl-L-Cysteinyl-L-Prolyl-L-Arginyl-L-Glycinamide]
Related Substances: Acetyl-AVP (inverted, 5° C., Initial): 0.3%
Related Substances: Asp5-AVP (inverted, 5° C., Initial): 0.1%
Related Substances: SEQ ID NO.: 2 (inverted, 5° C., Initial): 0.5% and 0.6%
Related Substances: SEQ ID NO.: 4 (inverted, 5° C., Initial): 0.6% and 0.5%
Related Substances: SEQ ID NO.: 10 (inverted, 5° C., Initial): 0.3%
Related Substances: UI-0.75-0.78 (inverted, 5° C., Initial): 0.2%
Related Substances: UI-0.83-0.84 (inverted, 5° C., Initial): 0.1%
Related Substances: UI-1.02-1.03 (inverted, 5° C., Initial): 0.2%
Related Substances: UI-1.03 (inverted, 5° C., Initial): 0.2%
Related Substances: UI-1.85 (inverted, 5° C., Initial): 0.2%
Related Substances: UI-2.05 (inverted, 5° C., Initial): 0.1% and 0.2%
Vasopressin (AVP) Assay (inverted, 5° C., Initial): 19.4 U/mL and 19.7 U/mL
Total Impurities [1]: 2.3% and 2.7% and 2.2%
Vasopressin (AVP) Assay [1]: 19.4 U/mL and 19.7 U/mL
AVP Assay [2]: 19.4 U/mL and 19.7 U/mL and 19.6 U/mL
Total Impurities [2]: 2.4% and 2.5% and 2.6%
AVP Assay [3]: 19.1 U/mL and 19.3 U/mL and 19.2 U/mL
Total Impurities [3]: 3.7% and 3.4% and 3.3%
AVP Assay [4]: 18.8 U/mL and 19 U/mL
Total Impurities [4]: 4.7% and 4.6%
AVP Assay [5]: 18.3 U/mL and 18.6 U/mL and 18.7 U/mL
Total Impurities [5]: 5.9% and 5.6%
Total Impurities (inverted, 25° C. and 60% Relative Humidity, 18 months): 9.0%
AVP Assay (inverted, 25° C. and 60% Relative Humidity, 18 months, listed as AVP): 17.5 U/mL and 17.6 U/mL and 18 U/mL
AVP Assay [6]: 17.3 U/mL and 17.6 U/mL and 17.4 U/mL
Total Impurities [6]: 13.6% and 13.4% and 12.9%
AVP Assay [7]: 19.8 U/mL and 20.1 U/mL and 19.9 U/mL
Total Impurities [7]: 1.1% and 1.3% and 1.5%
Total Impurities [8]: 3.7% and 3.6%
Vasopressin Assay [8]: 19.1 U/mL and 19.3 U/mL and 19.2 U/mL
Total Impurities [9]: 7.3%
Vasopressin Assay [9]: 18.6 U/mL and 18.7 U/mL and 18.3 U/mL
Total Impurities [10]: 10.6% and 10.3%
Vasopressin Assay [10]: 17.3 U/mL and 17.6 U/mL and 17.4 U/mL
Total Impurities [11]: 1.1% and 1.3%
Vasopressin Assay [11]: 19.8 U/mL and 20.1 U/mL and 19.9 U/mL
Related Substances: Acetyl-AVP (inverted, 40° C., 1 month): 0.2%
Related Substances: Asp5-AVP (inverted, 40° C., 1 month): 0.2%
Related Substances: D-Asn-AVP (inverted, 40° C., 1 month): 0.4%
Related Substances: SEQ ID NO.: 2 (inverted, 40° C., 1 month): 1.0%
Related Substances: SEQ ID NO.: 4 (inverted, 40° C., 1 month): 1.1%
Related Substances: UI-0.13 (inverted, 40° C., 1 month): 0.1%
Related Substances: UI-1.02-1.03 (inverted, 40° C., 1 month): 0.3%
Related Substances: UI-1.56-1.57 (inverted, 40° C., 1 month): 0.2%
Related Substances: UI-1.93 (inverted, 40° C., 1 month): 0.1%
Related Substances: Acetyl-AVP (inverted, 40° C., 2 months): 0.2%
Related Substances: Asp5-AVP (inverted, 40° C., 2 months): 0.5%
Related Substances: D-Asn-AVP (inverted, 40° C., 2 months): 0.3%
Related Substances: SEQ ID NO.: 2 (inverted, 40° C., 2 months): 2.4%
Related Substances: SEQ ID NO.: 4 (inverted, 40° C., 2 months): 2.7%
Related Substances: UI-1.02-1.03 (inverted, 40° C., 2 months): 0.2%
Related Substances: UI-1.56-1.57 (inverted, 40° C., 2 months): 0.4%
Related Substances: UI-1.83-1.85 (inverted, 40° C., 2 months): 0.2%
Related Substances: UI-1.87-1.88 (inverted, 40° C., 2 months): 0.2%
Related Substances: UI-2.05-2.08 (inverted, 40° C., 2 months): 0.2%
Related Substances: Acetyl-AVP (inverted, 40° C., 3 months): 0.2%
Related Substances: Asp5-AVP (inverted, 40° C., 3 months): 0.8%
Related Substances: D-Asn-AVP (inverted, 40° C., 3 months): 0.3%
Related Substances: SEQ ID NO.: 2 (inverted, 40° C., 3 months): 3.8%
Related Substances: SEQ ID NO.: 4 (inverted, 40° C., 3 months): 4.3%
Related Substances: UI-1.02-1.03 (inverted, 40° C., 3 months): 0.3%
Related Substances: UI-1.18 (inverted, 40° C., 3 months): 0.2%
Related Substances: UI-1.56-1.57 (inverted, 40° C., 3 months): 0.4%
Related Substances: UI-1.83-1.85 (inverted, 40° C., 3 months): 0.2%
Related Substances: UI-1.87-1.88 (inverted, 40° C., 3 months): 0.2%
Related Substances: Acetyl-AVP (inverted, 40° C., Initial): 0.3%
Related Substances: D-Asn-AVP (inverted, 40° C., Initial): 0.3%
Related Substances: SEQ ID NO.: 2 (inverted, 40° C., Initial): 0.1%
Related Substances: SEQ ID NO.: 4 (inverted, 40° C., Initial): 0.1%
Related Substances: UI-1.02-1.03 (inverted, 40° C., Initial): 0.2%
AVP Assay [12]: 19.5 U/mL and 19.7 U/mL
Total Impurities [12]: 2.1% and 1.8%
AVP Assay [13]: 19.4 U/mL and 19.6 U/mL
Total Impurities [13]: 2.1% and 2.2% and 2.0%
AVP Assay [14]: 19.4 U/mL and 19.7 U/mL
Total Impurities [14]: 2.3% and 2.2%
AVP Assay [15]: 19.5 U/mL and 19.8 U/mL
Total Impurities [15]: 2.1% and 2.2%
AVP Assay [16]: 19.5 U/mL and 19.7 U/mL
Total Impurities [16]: 2.3% and 2.1%
AVP Assay [17]: 19.5 U/mL and 19.8 U/mL and 19.9 U/mL
Total Impurities [17]: 2.5% and 2.6% and 2.4%
AVP Assay [18]: 19.4 U/mL and 19.7 U/mL and 19.8 U/mL
Total Impurities [18]: 2.9% and 2.8%
AVP Assay [19]: 19.3 U/mL and 19.5 U/mL
Total Impurities [19]: 2.9% and 2.8% and 2.7%
AVP Assay [20]: 19.4 U/mL and 19.7 U/mL
Total Impurities [20]: 2.3% and 2.7% and 2.2%
AVP Assay [21]: 19.4 U/mL and 19.7 U/mL and 19.6 U/mL
Total Impurities [21]: 2.4% and 2.5%
AVP Assay [22]: 19.1 U/mL and 19.4 U/mL and 19.2 U/mL
Total Impurities [22]: 3.2% and 3.3% and 3.7%
AVP Assay [23]: 18.8 U/mL and 18.9 U/mL and 19 U/mL
Total Impurities [23]: 4.8% and 4.5% and 4.7%
AVP Assay [24]: 18.3 U/mL and 18.6 U/mL and 18.5 U/mL
Total Impurities [24]: 5.6% and 5.7% and 5.9%
AVP Assay (upright, 25° C. and 60% Relative Humidity, 18 months): 18.1 U/mL
AVP Assay [25]: 17.5 U/mL and 17.8 U/mL
Total Impurities [25]: 9.2% and 9.1%
Total Impurities (upright, 25° C. and 60% Relative Humidity, 24 months): 13.3%
AVP Assay [26]: 17.4 U/mL and 17.7 U/mL
Total Impurities [26]: 13.1%
AVP Assay [27]: 19.8 U/mL and 20.1 U/mL and 19.9 U/mL
Total Impurities [27]: 1.1% and 1.3% and 1.5%
